The subject of this assay is 266295-075-R-J1-PDC spheroid viability. The assay can be described thus: Anticancer human tumor 266295-075-R-J1-PDC patient-derived head and neck squamous carcinoma cell line growth inhibition [POLQ]. The settings on record: spheroids with HUVEC and MSC; for viability, T/C: stronger effect = lower value. The procedure:
Multicellular complex tumor spheroid response to Polymerase (POL) inhibitors (novobiocin, ART-558, RP6685) in combination with a variety of drugs and investigational agents in selected tumor cell lines
The POL inhibitors (novobiocin, ART-558, and RP6685) were evaluated both individually and in combination with standard of care and investigational anticancer small molecules within a complex spheroid model of solid tumors. . Complex spheroids include a stromal component modeled by human endothelial cells (HUVEC) and fibroblasts modeled by human mesenchymal stem cells (MSCs). The concentration ranges selected for each drug and investigational agent were based upon clinically achievable concentrations if the clinical Cmax of the agent was known.
Compounds. The drugs and investigational agents: novobiocin (NSC847541), ART-558 (NSC835418), RP-6685 (NSC848927), peposertib (NSC802822), ceralasertib (NSC780249), elimusertib (NSC800525), camonsertib (NSC841442), AZD-1390 (NSC803789), olaparib (NSC753686), talazoparib (NSC767125), rucaparib (NSC756644), sotorasib (NSC818433), MRTX-1133 (NSC836407), SN-38 (NSC673596), topotecan (NSC609699), epotoside (NSC141540), doxorubicin (NSC123127), gemcitabine (NSC613327), 5-fluorouracil (NSC19893), paclitaxel (NSC125973), vemurafenib (NSC761431), MSA-2 (NSC828583), SN-011 (NSC837082), adavosertib (NSC754352), prexasertib (NSC758257), carboplatin (NSC241240) and oxaliplatin (NSC266046), were obtained from the National Cancer Institute (NCI) Developmental Therapeutics Program Chemical Repository (21). The FDA-approved anticancer drug set is available from the Developmental Therapeutics Program at https://dtp.cancer.gov/organization/dscb/obtaining/. […] The stock solutions were prepared in dimethyl sulfoxide (DMSO, Sigma-Aldrich, St. Louis, MO, cat. D2650), except for the platinum compounds which were prepared in saline (Quality Biological, Gaithersburg, MD, cat. 114-055-101), at 800-fold the tested concentration and stored at -70 degrees C prior to their use. All drugs and investigational agents were tested over a range starting from a high concentration at or near the clinical Cmax and decreasing in half-log increments. If the clinical Cmax for an agent had not been determined, the highest concentration tested was 10 microM, except for SN-38, which was tested at a high concentration of 1 microM.
Cell Culture. All cells were maintained in an incubator at 37 degrees C and 5% CO2 with 95% humidity. The PDC lines were cultured according to standard operating procedures established by the NCI PDMR (https://pdmr.cancer.gov). Table 3 of the manuscript, lists the cell lines along with the number of the three cell types plated to form the mct-spheroids and media for tumor cell growth. After thawing, all PDC lines, except 997537-175-T-J1-PDC and 415267-285-R-J2-PDC, were cultured in Matrigel-coated flasks prepared with a working solution of 1X Ham's F-12 nutrient mix, without supplementation (Thermo Fisher Scientific, cat. 11765054), 100 U/mL penicillin-streptomycin (Thermo Fisher Scientific, cat. 15140122), and 2.5% Matrigel (Corning Inc., Corning, NY, cat. 354248) for the first three passages. The two PDC lines 997537-175-T-J1-PDC and 415267-285-R-J2-PDC were cultured on uncoated flasks. The 857933-349-R-J2-PDC line was cultured in 6C/Colon 1B media containing advanced DMEM/F-12 (Thermo Fisher Scientific, cat. 12634028), 10 mM HEPES (Thermo Fisher Scientific, cat. 15630080), 1X GlutaMAX supplement (Thermo Fisher Scientific, cat. 35050061), 0.1 mg/mL primocin (InvivoGen, San Diego, CA, cat. ant-pm-2), 10% defined fetal bovine serum, heat inactivated (HyClone Laboratories Inc., Logan, UT, cat. SH30070.03HI), 50% L-WRN conditioned media (ATCC, cat. CRL-3276), 1.25 mM N-Acetyl-L-cysteine (Sigma-Aldrich, cat. A9165), 10 mM nicotinamide (Sigma-Aldrich, cat. N0636), 1X B-27 supplement (Thermo Fisher Scientific, cat. 17504044), 1X N-2 supplement (Thermo Fisher Scientific, cat. […]

SMILES strings stand for the structures. Where “and” joins values, the source holds several entries; their conditions need not be identical. Identical values can stand only once. Bounds are passed on as bounds.
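Also: spheroids exposed to compounds for seven days before readout.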

The viability, T/C is the ratio of treated to control. What is called IC50 is the concentration that inhibits the measured activity by half. Regarding `CNCc1ccc(-c2[nH]c3cc(F)cc4c3c2CCNC4=O)cc1`, the viability, T/C (compound 0.0316 µM) was 105% and 77.3% and 89.9%; the viability, T/C (compound 0.1 µM) was 102% and 92.1% and 96.7%; the viability, T/C (compound 0.316 µM) was 107% and 102% and 87.6%; the viability, T/C (compound 1 µM) was 91.4% and 94% and 99.2%; the viability, T/C (compound 3.16 µM) was 110% and 105% and 106%; the viability, T/C (compound 10 µM) is 91.8% and 123% and 105%. The IC50 (curve of compound) is over 10 µM.

As for `COC1C(OC(N)=O)C(O)C(Oc2ccc3c(O)c(NC(=O)c4ccc(O)c(CC=C(C)C)c4)c(=O)oc3c2C)OC1(C)C` (stereo unspecified), the viability, T/C reads like this: (compound 0.0316 µM) 101% [middle of 13 runs]; (compound 1 µM) 101% [middle of 13 runs]. Further, the IC50 (compound alone, run of 10/31/2023) is over 10 µM.

In the case of `COc1cc(C2c3cc4c(cc3C(OC3OC5COC(C)OC5C(O)C3O)C3COC(=O)C23)OCO4)cc(OC)c1O` (stereo unspecified), the viability, T/C is 84.2% and 123% and 88.1% (compound 0.0316 µM); 80.5% and 94.5% and 116% (compound 0.1 µM); 92.3% and 110% and 112% (compound 0.316 µM); 77.7% and 88% and 98.4% (compound 1 µM); 79.7% and 84.9% and 93.1% (compound 3.16 µM); 72.6% and 84.4% and 82.6% (compound 10 µM). Further, where the note is “curve of compound”, the IC50 is over 10 µM.

`COc1ccc([C@@H](O)c2cc(-c3ncnc4cc(N5CCOCC5)ccc34)c(F)cc2Cl)nn1`: the viability, T/C is, setting by setting: (compound 0.0316 µM) 96.7% and 96.6% and 100%; (compound 0.1 µM) 89.4% and 101% and 98%; (compound 0.316 µM) 84.6% and 83% and 84%; (compound 1 µM) 60.7% and 73.9% and 67.8%; (compound 3.16 µM) 44.7% and 71.7% and 51.1%; (compound 10 µM) 39.7% and 44.2% and 39.9%. For the setting “curve of compound”, the IC50 was 2.17 µM and 8.03 µM and 3.39 µM.

With `COc1cccc(OCCCN)c1-c1cc(Nc2cnc(C#N)cn2)n[nH]1`, the viability, T/C by setting is: (compound 0.00316 µM) 109% and 97% and 97.8%; (compound 0.01 µM) 88.7% and 92.5% and 82.9%; (compound 0.0316 µM) 70.5% and 72.5% and 94.9%; (compound 0.1 µM) 77.6% and 81.7% and 73.8%; (compound 0.316 µM) 73.2% and 70% and 74.8%; (compound 1 µM) 85% and 73.7% and 71.7%. The IC50 (curve of compound) was over 1 µM.

Take `COc1cccc2c1C(=O)c1c(O)c3c(c(O)c1C2=O)CC(O)(C(=O)CO)CC3OC1CC(N)C(O)C(C)O1` (stereo unspecified): the viability, T/C reads like this: (compound 0.0316 µM) 75.4% and 85.8% and 98.2%; (compound 0.1 µM) 77% and 122% and 101%; (compound 0.316 µM) 67.3% and 74% and 72.5%; (compound 1 µM) 55.9% and 77.4% and 82.8%; (compound 3.16 µM) 47.4% and 71.8% and 63.5%; (compound 10 µM) 1.55% and 2.37% and 2.7%. In addition, the IC50 (curve of compound) was 2 µM and 4.15 µM and 3.85 µM.

As for `Cn1ncnc1[C@H]1c2n[nH]c(=O)c3cc(F)cc(c23)N[C@@H]1c1ccc(F)cc1`, the viability, T/C by setting is: (compound 0.000316 µM) 103% and 112% and 99.9%; (compound 0.001 µM) 100% and 92.9% and 88.8%; (compound 0.00316 µM) 87.1% and 103% and 107%; (compound 0.01 µM) 102% (2×) and 92.9%; (compound 0.0316 µM) 104% and 112% and 89%; (compound 0.1 µM) 118% and 101% and 105%. Moreover, the IC50 (curve of compound) is over 0.1 µM.

As for `Nc1ccn(C2OC(CO)C(O)C2(F)F)c(=O)n1` (stereo unspecified), the viability, T/C reads like this: (compound 0.0316 µM) 85.5% and 98.5% and 105%; (compound 0.1 µM) 81.7% and 117% and 83.4%; (compound 0.316 µM) 81.2% and 85.9% and 88.4%; (compound 1 µM) 64.9% and 81.8% and 83.7%; (compound 3.16 µM) 84.6% and 85.2% and 85.7%; (compound 10 µM) 75.2% and 82.7% and 85.4%. Moreover, the IC50 (curve of compound) was over 10 µM.

With `O=C(c1cc(Cc2n[nH]c(=O)c3ccccc23)ccc1F)N1CCN(C(=O)C2CC2)CC1`, the viability, T/C by setting is: (compound 0.0316 µM) 114% and 79.6% and 101%; (compound 0.1 µM) 84% and 87.8% and 94.3%; (compound 0.316 µM) 94.3% and 90.3% and 90.9%; (compound 1 µM) 91.9% and 99.1% and 99.3%; (compound 3.16 µM) 112% and 105% and 107%; (compound 10 µM) 85.3% and 86.9% and 82.6%. For the same molecule, the IC50 (curve of compound) was over 10 µM.

For the molecule `O=c1[nH]cc(F)c(=O)[nH]1`, the viability, T/C (compound 0.0316 µM) is 98.7% and 96% and 115%; the viability, T/C (compound 0.1 µM) is 89.9% and 91.2% and 95.8%; the viability, T/C (compound 0.316 µM) was 86.7% and 97.9% and 89.4%; the viability, T/C (compound 1 µM) was 89.8% and 116% and 102%; the viability, T/C (compound 3.16 µM) is 80.7% and 102% and 94.3%; the viability, T/C (compound 10 µM) is 89.4% and 89% and 84.3%. The half-inhibitory concentration (IC50) (curve of compound) was over 10 µM.
